Experimental data published in paper PMC10683025, “Discovery of a Hydroxylamine-Based Brain-Penetrant EGFR Inhibitor for Metastatic Non-Small-Cell Lung Cancer” (Journal of Medicinal Chemistry, 2023).
In brackets after ≈: the same amount, converted by molar mass. Where two headings read alike, the source gives them in different places.

Key:
EGFR del E746_A750 = target: T1, EGFR del E746_A750 (Homo sapiens, UniProt P00533, DEL746-750); assay: KINOMEScan KdELECT Kd determination; type: binding
T1 construct: purchased Eurofins DiscoverX (contract assay)
Experimental: (§3) In vitro kinase activity (inhibitor binding constants (Kd) and biochemical inhibition (IC50’s)) were assessed by Eurofins DiscoverX (Kd determinations) and Eurofins Cerep (biochemical IC50 determinations).

EGFRwt = target: T2, EGFRwt (Homo sapiens, UniProt P00533); assay: KinaseProfiler enzymatic radiometric assay; type: biochemical; details: wt, ATP 10 μM; read-out: EGFR IC50
T2 construct: purchased Eurofins DiscoverX (contract assay)
Experimental: as §3

[1] = system: Ba/F3 EGFR-L858R/C797S cells; assay: CellTiter-Glo cell viability assay; type: cell-based; details: Mus musculus, BaF3; 72 h, unadjusted for FBS
Experimental: (§1) The A431, HCC827, SK-BR-3, ZR-75–30, AU565, and Caco-2 cell lines were obtained from ATCC. The NCI-H1975 cell line was obtained from SIBS. The NCI-H3255 cell line was obtained from CoBioer. Engineered Ba/F3 cell lines were obtained from Crown Bioscience. MCKII-MDR1 cells were obtained from The Netherlands Cancer Institute. HEK293 cells were obtained from Invitrogen. A431 cells were cultured in DMEM (Life Technologies) with 10% FBS. HCC827, NCI-H1975, and AU565 cells were cultured in RPMI1640 (Invitrogen) with 10% FBS. NCI-H3255 cells were cultured in BEGM (Lonza) with 10% FBS. Ba/F3 EGFR-del E746_A750/C797S and Ba/F3 EGFR-L858R/C797S cells were cultured in RPMI (Invitrogen) with 10% FBS. SK-BR-3 cells were cultured in McCoy’s 5a (Invitrogen) with 10% FBS. ZR-75-30 cells were cultured in RPMI1640 (Invitrogen) with 20% FBS. Caco-2 and MCKII-MDR1 culture information is given in the Permeability Studies section. HEK293 cells were cultured in DMEM (Gibco) with 10% FBS, 0.1 mM NEAA, 25 mM HEPES, 100 U/mL penicillin-streptomycin, μg/mL blasticidin, and 400 μg/mL Geneticin. All cells were cultured in a humidified incubator with 5% CO2 at 37 °C.
(§2) Viability assays using A431, HCC827, NCI-H1975, NCI-H3255, Ba/F3 EGFR-del E746_A750/C797S, Ba/F3 EGFR-L858R/C797S, AU565, SK-BR-3, and ZR-75-30 cells were performed at Crown BioScience. Cells were plated into 96-well plates at 1500–7000 cells per well and dosed in triplicate (n = 3) in a nine-point, 4-fold dilution series with compounds (0.15 nM to 10 μM) in DMSO and incubated for 72 h. After 72 h, cell viability was assayed by CellTiter-Glo Luminescent Viability Assay (Promega). Dose–response curves were generated and used to calculate the IC50 values which were calculated on GraphPad Prism from the nonlinear regression equation fitted with a sigmoidal dose response and are presented as mean ± SEM.

[2] = system: Ba/F3 EGFR-del E746_A750/C797S cells; assay: CellTiter-Glo cell viability assay; type: cell-based; details: Mus musculus, BaF3; 72 h, unadjusted for FBS
Experimental: as §1, §2

[3] = Lipophilicity, shake-flask; type: physicochemical; details: 1-octanol/PBS; 1-octanol and PBS (pH 7.4); read-out: logD7.4
Experimental: Compound lipophilicity was determined by Pharmaron, Inc. using the shake-flask method with 1-octanol and PBS (pH 7.4). Each compound was assessed in duplicate (n = 2) at 1 μM in a 96-well plate shaken at 25 °C and 2000 rpm for 2 h. Samples were analyzed by liquid chromatography and tandem mass spectrometry (LC-MS/MS).

Solubility assay = type: physicochemical; details: buffer; for solubility at 2 h: read-out: Aq. Solubility; for solubility kinetic at 2 h: pH 7.4, aqueous buffer, read-out: Aq. Sol.
Experimental: Solubility was determined by Pharmaron, Inc. and each compound was assessed in duplicate (n = 2) by adding 15 μL of compound stock solution (10 mM in DMSO) into a 96-well plate along with 485 μL of buffer followed by shaking at 25 °C, 1100 rpm for 2 h. Wells were filtered, and samples (5 μL) were taken followed by dilution with an equal volume of DMSO (5 μL) and 490 μL of aqueous solution. Samples were analyzed by LC-MS/MS.

[4] = Metabolic stability in hepatocytes; type: in vitro ADME, human; details: for Remaining Percentages: human hepatocytes; for hepatocyte CLint at 2 h, 1 µM / half-life at 2 h, 1 µM: human, hepatocytes; for half-life at 2 h, 1 µM: read-out: HEP t1/2
Experimental: Microsome stability was assessed in duplicate (n = 2) in the presence and absence of nicotinamide adenine dinucleotide phosphate (NADPH) with liver microsomes (0.5 mg/mL) from human (BD Gentest) and Sprague-Dawley rats (BD Gentest). Compounds were incubated in liver microsomes at 1 μM and samples (30 μL) were taken at 0.5, 15, 30, 45, and 60 min time points for analysis by LC-MS/MS. Hepatocyte stability was assessed in duplicate (n = 2) at a working cell density of 0.5 × 10^6 cells/mL with hepatocytes from human (BiolVT), Sprague-Dawley rat (BiolVT), cynomolgus monkey (RILD) or beagle dog (BiolVT). […] The in vitro half-life and intrinsic clearances were determined as previously described.[76]
In vitro half-life (in vitro t1/2) was determined from the slope value in [drawing 1] where k was determined by linear regression of the natural logarithm of the remaining percentage of the parent drug vs the incubation time curve.

Plasma stability = type: in vitro ADME, human; details: for Remaining Percentages / t1/2: human plasma; for t1/2: ∞ = no degradation
How it was run: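 Compound at 5 μM incubated in human and Sprague-Dawley rat plasma, duplicates; samples at 0, 15, 30, 60 and 120 min analysed by LC-MS/MS. Percent remaining at each time from compound/control peak area ratio relative to the 0 min ratio.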

MDCKII-MDR1 permeability = type: in vitro ADME, canine; details: dog, MDCK-MDR1, MDCKII-MDR1
Experimental: (§4) A 96-well HTS Transwell plate (Corning) was used for Caco-2 and MDCKII-MDR1 cell seeding. […] Plates were incubated at 37 °C for 2 h, and samples (50 μL) were taken at the beginning and end of the incubation in both the donor and acceptor wells with the assay run in duplicate (n = 2). Samples were analyzed by LC-MS/MS.
(§5) The efflux ratio was determined by using the following equation: [drawing 4] where Papp (B–A) indicates the apparent permeability in the basolateral to apical direction and Papp (A–B) indicates the apparent permeability in the apical to basolateral direction.

MDR1 = assay: MDCKII-MDR1 permeability; type: in vitro ADME, canine; details: dog, MDCK-MDR1
Experimental: as §4, §5

[5] = Plasma protein binding by equilibrium dialysis; type: in vitro ADME, mouse
Experimental: Plasma protein binding and brain tissue binding were determined by Pharmaron, Inc. using the equilibrium dialysis method. […] Following incubation, the samples were analyzed by LC-MS/MS and the concentrations of the compounds were determined in the buffer and plasma solution chambers.

EGFRL858R [6] = target: T3, EGFRL858R (Homo sapiens, UniProt P00533, L858R); assay: KINOMEScan KdELECT Kd determination; type: binding; parameters: purchased Eurofins DiscoverX (contract assay); details: L858R
Experimental: as §3

EGFRL858R [7] = target: T3, EGFRL858R; assay: KinaseProfiler enzymatic radiometric assay; type: biochemical; parameters: purchased Eurofins Cerep (KinaseProfiler, contract assay); details: ATP 10 μM, read-out: EGFR IC50
Experimental: as §3

[8] = CD-1, mouse, mouse plasma, read-out: %Bound (converted)
[9] = CD-1, plasma, mouse, 5 μM, read-out: fu,plasma% / %Unbound

T3 sequence (P00533 25-1210 L858R): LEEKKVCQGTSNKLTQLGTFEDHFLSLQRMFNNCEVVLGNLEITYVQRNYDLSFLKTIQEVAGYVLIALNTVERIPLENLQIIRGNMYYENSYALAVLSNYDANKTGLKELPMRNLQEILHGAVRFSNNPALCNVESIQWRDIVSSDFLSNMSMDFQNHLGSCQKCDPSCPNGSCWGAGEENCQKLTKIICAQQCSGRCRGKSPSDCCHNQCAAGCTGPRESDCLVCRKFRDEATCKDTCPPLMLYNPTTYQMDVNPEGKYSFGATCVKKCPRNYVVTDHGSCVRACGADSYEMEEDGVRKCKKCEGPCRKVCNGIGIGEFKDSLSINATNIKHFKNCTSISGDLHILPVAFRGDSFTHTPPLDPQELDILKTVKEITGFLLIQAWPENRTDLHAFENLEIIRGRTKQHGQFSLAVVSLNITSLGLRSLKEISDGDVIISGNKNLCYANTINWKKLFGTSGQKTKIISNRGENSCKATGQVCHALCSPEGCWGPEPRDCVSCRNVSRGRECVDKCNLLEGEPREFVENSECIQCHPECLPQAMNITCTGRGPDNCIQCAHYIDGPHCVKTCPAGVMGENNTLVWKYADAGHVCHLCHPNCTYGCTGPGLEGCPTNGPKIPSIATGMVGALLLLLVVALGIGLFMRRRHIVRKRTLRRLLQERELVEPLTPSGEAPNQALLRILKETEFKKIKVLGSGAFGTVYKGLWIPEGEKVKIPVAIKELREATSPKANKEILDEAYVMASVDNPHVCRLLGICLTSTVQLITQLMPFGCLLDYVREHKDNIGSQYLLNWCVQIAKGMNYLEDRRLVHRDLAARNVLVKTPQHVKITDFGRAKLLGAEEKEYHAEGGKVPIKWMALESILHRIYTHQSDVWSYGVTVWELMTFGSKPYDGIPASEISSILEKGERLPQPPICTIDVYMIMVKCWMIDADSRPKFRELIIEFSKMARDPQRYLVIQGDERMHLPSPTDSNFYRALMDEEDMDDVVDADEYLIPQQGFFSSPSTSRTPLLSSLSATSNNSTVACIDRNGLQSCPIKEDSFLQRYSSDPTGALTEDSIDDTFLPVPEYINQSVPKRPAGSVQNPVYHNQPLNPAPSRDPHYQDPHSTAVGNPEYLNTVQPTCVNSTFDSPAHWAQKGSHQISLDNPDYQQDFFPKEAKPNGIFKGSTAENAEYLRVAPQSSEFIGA
T2 sequence (P00533 25-1210): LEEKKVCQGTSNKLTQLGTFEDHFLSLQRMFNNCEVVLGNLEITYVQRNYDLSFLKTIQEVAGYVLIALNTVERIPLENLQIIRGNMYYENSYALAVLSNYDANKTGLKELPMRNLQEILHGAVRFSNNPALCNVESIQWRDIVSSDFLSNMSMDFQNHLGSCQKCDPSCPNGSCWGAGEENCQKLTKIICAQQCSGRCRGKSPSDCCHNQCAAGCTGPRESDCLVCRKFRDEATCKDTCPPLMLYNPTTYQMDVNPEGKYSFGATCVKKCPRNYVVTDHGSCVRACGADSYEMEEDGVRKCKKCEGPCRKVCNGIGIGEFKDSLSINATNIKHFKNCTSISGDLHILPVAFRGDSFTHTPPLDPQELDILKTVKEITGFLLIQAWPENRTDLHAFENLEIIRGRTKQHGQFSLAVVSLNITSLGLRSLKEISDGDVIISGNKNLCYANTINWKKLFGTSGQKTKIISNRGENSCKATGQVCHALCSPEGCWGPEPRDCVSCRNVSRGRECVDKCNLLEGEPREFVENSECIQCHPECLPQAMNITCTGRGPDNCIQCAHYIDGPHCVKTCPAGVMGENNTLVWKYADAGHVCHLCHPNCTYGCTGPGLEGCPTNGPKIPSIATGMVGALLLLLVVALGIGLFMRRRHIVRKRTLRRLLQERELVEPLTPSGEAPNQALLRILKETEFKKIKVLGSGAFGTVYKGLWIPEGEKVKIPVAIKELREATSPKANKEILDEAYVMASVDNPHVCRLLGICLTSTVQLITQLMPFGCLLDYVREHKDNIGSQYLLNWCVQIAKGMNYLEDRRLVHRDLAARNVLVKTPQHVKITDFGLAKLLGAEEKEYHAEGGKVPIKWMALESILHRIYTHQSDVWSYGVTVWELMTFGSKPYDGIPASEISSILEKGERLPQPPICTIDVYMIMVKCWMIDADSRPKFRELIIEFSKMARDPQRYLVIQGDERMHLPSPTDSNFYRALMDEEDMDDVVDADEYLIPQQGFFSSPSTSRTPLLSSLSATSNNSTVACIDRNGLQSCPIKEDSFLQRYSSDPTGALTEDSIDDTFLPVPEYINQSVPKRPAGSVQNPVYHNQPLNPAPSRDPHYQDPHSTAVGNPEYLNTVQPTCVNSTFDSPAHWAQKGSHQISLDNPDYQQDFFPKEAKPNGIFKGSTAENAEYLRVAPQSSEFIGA
T1 sequence (P00533 with tags, fused parts or gaps DEL746-750): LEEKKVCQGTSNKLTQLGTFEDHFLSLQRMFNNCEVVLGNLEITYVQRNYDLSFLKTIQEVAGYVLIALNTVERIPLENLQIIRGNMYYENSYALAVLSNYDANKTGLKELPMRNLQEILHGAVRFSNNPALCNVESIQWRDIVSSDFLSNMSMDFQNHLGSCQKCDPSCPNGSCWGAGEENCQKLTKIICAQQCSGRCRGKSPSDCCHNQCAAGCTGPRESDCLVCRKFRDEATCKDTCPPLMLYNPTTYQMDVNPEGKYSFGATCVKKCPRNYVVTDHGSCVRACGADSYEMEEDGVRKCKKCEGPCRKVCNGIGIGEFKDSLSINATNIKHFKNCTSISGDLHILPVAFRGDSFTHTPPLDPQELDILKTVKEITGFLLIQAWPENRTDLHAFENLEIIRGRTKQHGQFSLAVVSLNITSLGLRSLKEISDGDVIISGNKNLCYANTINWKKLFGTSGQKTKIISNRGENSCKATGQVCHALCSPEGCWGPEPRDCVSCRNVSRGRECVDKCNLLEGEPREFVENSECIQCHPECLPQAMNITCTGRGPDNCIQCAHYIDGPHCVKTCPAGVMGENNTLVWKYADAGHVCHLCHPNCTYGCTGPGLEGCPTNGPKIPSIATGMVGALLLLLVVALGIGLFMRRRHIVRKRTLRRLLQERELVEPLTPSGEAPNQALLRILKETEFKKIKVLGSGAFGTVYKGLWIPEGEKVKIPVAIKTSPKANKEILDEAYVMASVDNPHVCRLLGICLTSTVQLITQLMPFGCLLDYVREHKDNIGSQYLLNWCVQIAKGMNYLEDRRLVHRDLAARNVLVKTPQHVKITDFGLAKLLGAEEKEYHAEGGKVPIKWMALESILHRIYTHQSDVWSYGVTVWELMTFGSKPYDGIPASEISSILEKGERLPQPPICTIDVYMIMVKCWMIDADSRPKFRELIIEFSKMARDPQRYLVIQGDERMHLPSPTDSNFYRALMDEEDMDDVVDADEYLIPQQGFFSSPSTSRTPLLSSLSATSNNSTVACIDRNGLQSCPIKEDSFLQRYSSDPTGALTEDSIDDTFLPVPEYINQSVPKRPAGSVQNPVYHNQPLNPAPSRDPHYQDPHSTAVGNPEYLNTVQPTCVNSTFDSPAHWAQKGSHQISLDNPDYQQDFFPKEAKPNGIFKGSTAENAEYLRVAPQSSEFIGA

Row | SMILES | Kd (EGFR del E746_A750) [nM] | IC50 (EGFRwt) [nM] | IC50 [1] [nM] | IC50 [2] [nM] | logD at 2 h, 1 µM [3] | solubility kinetic at 2 h (Solubility assay) [µM] | Remaining Percentages ([4]; 15 min) [%] | Remaining Percentages ([4]; 30 min) [%] | Remaining Percentages ([4]; 60 min) [%] | Remaining Percentages ([4]; 90 min) [%] | Remaining Percentages ([4]; 120 min) [%] | hepatocyte CLint at 2 h, 1 µM [4] [µL/min/1e6 cells] | half-life at 2 h, 1 µM [4] [h] | Remaining Percentages (Plasma stability; 15 min) [%] | Remaining Percentages (Plasma stability; 30 min) [%] | Remaining Percentages (Plasma stability; 60 min) [%] | Remaining Percentages (Plasma stability; 120 min) [%] | t1/2 (Plasma stability) | recovery at 2 h, 1 μM (MDCKII-MDR1 permeability; read-out: Recovery% (AP-BL)) [%] | recovery at 2 h, 1 μM (MDCKII-MDR1 permeability; read-out: Recovery% (BL-AP)) [%] | other results
1 | COc1cc2ncnc(Nc3cccc(Cl)c3F)c2cc1OCCON1CCN(C)CC1 [Compound 9, N-(3-Chloro-2-fluorophenyl)-7-methoxy-6-(2-((4-methylpiperazin-1-yl)oxy)ethoxy)quinazolin-4-amine] | < 0.2 | 3 | 4.6 | 2.5 | 2.8 | 199 (≈ 91.9 µg/mL) | 98.94 | 89.67 | 75.36 | 58.28 | 52.37 | 12 | 1.95 | 93.43 | 92.26 | 97.47 | 92.38 | ∞ | 68.6 | 90 | solubility at 2 h (Solubility assay; pH 1.2): > 300 µM; solubility at 2 h (Solubility assay; pH 6.8): 262 µM (≈ 121 µg/mL); remaining at 5 μM (Plasma stability; human, plasma): > 90%; efflux ratio at 2 h, 1 µM (MDR1): 0.9; efflux ratio at 2 h, 1 μM (MDR1): 0.92; Papp A→B at 2 h, 1 µM (MDR1): 9.8 ×10⁻⁶ cm/s; Papp A→B at 2 h, 1 μM (MDR1): 9.82 ×10⁻⁶ cm/s; Papp B→A at 2 h, 1 µM (MDR1): 9.1 ×10⁻⁶ cm/s; Papp B→A at 2 h, 1 μM (MDR1): 9.06 ×10⁻⁶ cm/s; recovery at 6 h, 5 μM ([5]; CD-1, mouse, mouse plasma): 95.4%; remaining at 6 h, 5 μM ([5]; CD-1, mouse, mouse plasma): 92.9%; fraction unbound at 6 h, 5 μM [5, 8]: 0.0702; fraction unbound at 6 h, 5 µM [5, 9]: 0.07; fraction unbound at 6 h, 5 μM [5, 9]: 0.0702; Kd (EGFRL858R [6]): < 0.2 nM; IC50 (EGFRL858R [7]): 2 nM
2 | COc1cc2ncnc(Nc3cccc(Cl)c3F)c2cc1OCCON1CCOCC1 [Compound 7, N-(3-Chloro-2-fluorophenyl)-7-methoxy-6-(2-(morpholinooxy)ethoxy)quinazolin-4-amine] | < 0.2 | 3 | 5 | 2.5 | 3.4 | 36 (≈ 16.2 µg/mL) | 96.13 | 87.34 | 76.27 | 61.58 | 45.68 | 13 | 1.79 | 100.68 | 93.61 | 100.91 | 97.91 | ∞ | 73.5 | 76.4 | efflux ratio at 2 h, 1 µM (MDR1): 1.1; efflux ratio at 2 h, 1 μM (MDR1): 1.06; Papp A→B at 2 h, 1 µM (MDR1): 12.6 ×10⁻⁶ cm/s; Papp A→B at 2 h, 1 μM (MDR1): 12.6 ×10⁻⁶ cm/s; Papp B→A at 2 h, 1 µM (MDR1): 13.3 ×10⁻⁶ cm/s; Papp B→A at 2 h, 1 μM (MDR1): 13.3 ×10⁻⁶ cm/s; recovery at 6 h, 5 μM ([5]; CD-1, mouse, mouse plasma): 98.4%; remaining at 6 h, 5 μM ([5]; CD-1, mouse, mouse plasma): 102%; fraction unbound at 6 h, 5 μM [5, 8]: 0.0665; fraction unbound at 6 h, 5 μM [5, 9]: 0.0665; Kd (EGFRL858R [6]): < 0.2 nM; IC50 (EGFRL858R [7]): 1 nM
